Assay results reported in patent US20250268868A1, “AGENT FOR REDUCING VISCERAL FAT WEIGHT” (Kowa Co., Ltd., priority 2009, published 2025).

Assays:
Zucker fatty rats [1] = test: Plasma triglyceride (TG) level in Zucker fatty rats, enzymatic method; assay type: in vivo, rat; details: compound A 3 mg/kg, oral once a day for 14 days, blood on day 14 after four-hour fasting
Experimental: (§1) This test employed (R)-2-[3-[[N-(benzoxazol2-yl) -N-3-(4-methoxyphenoxy)propyl]aminomethyl]phenoxy]butyric acid (hereinafter will be referred to as “compound A”), which is an optically active substance of the compound disclosed in Example 14 in Patent Document 2. Compound A or fenofibrate was administered to Zucker fatty rats, and the effects of the compound on plasma triglyceride (TG) level, plasma FGF21 level, and epididymal fat weight were determined through the below-described methods.
(§2) Hyperlipidemic Zucker fatty rats with obesity due to overeating (Crlj: ZUC-Lepr Genotype: fa/fa) and Zucker lean rats without obesity (Crlj: ZUC-Lepr Genotype: fa/+ or +/+) were purchased from Charles River Laboratories Japan Inc. (eight weeks old upon test).
(§3) Throughout the test period, the rats were reared in a rearing cage (light-dark cycle (light period by interior lighting: 7:00 a.m. to 7:00 p.m.), temperature: 23+3° C., humidity: 55±15%) under conditions where solid feed (CE-2, product of Oriental Yeast Co., Ltd.) and tap water were fed ad libitum. […]
(§4) On day 14 after initiation of administration, blood was collected after four-hour fasting following administration, and plasma triglyceride level and plasma FGF21 level were measured through an enzymatic method and ELISA (Human FGF-21 ELISA Kit, product of Biovender), respectively. […]

FGF21 = test: Plasma FGF21 level in Zucker fatty rats, ELISA; assay type: in vivo, rat; details: compound A 3 mg/kg, oral once a day for 14 days, day 14
Experimental: as §1, §2, §3, §4

Zucker fatty rats [2] = test: Epididymal fat weight (indicator of visceral fat weight) in Zucker fatty rats; assay type: in vivo, rat; details: compound A 3 mg/kg, oral once a day for 14 days
Experimental: as §1, §2, §3, §4

Zucker fatty rats [3] = test: Adverse events and feed intake during administration to Zucker fatty rats; assay type: in vivo, rat
Experimental: Rats were divided into the following four groups (six rats per group) so that body weights, plasma total cholesterol levels, and plasma triglyceride levels were averaged in the groups: a first group (control), a second group (administration of compound A (1 mg/kg)), a third group (administration of compound A (3 mg/kg)), and a fourth group (administration of fenofibrate (300 mg/kg)). A group of five Zucker lean rats was employed as a negative control group.
Each drug was orally administered once a day (in the morning) for continuous 14 days. A 0.5 mass % aqueous methylcellulose solution (2 mL/kg) was orally administered to the rats of the first group (control).
However, from 11 days to 14 days after administration, feed intake was reduced by 14% in the rats of the group of fenofibrate administration, which raised a concern about the toxicity of fenofibrate. Even under such a situation, fat weight tended to decrease only slightly.

KK-Ay mice [4] = test: Fat weight reducing effect on obesity model mice (KK-Ay mice); assay type: in vivo, mouse; details: oral once a day for 35 days
Experimental: This test employed compound A, as well as (R)2-[3-[ [N-(5-fluorobenzoxazol2-yl)-N2-phenoxyethyl]aminomethyl]phenoxy]butyric acid (hereinafter will be referred to as “compound B”), which is an optically active substance of the compound disclosed in Example 229 in Patent Document 2. Compound A, compound B, or fenofibrate was administered to KK-Ay mice, and the effects of the compound on epididymal fat weight and mesenteric fat weight were determined through the below-described methods.
Method: Male KK-Ay mice (KK-Ay/TaJcl) were purchased from Clea Japan, Inc. (10 weeks old upon test). Each compound was orally administered to mice once a day for […]. Throughout the test period, the mice were reared in a rearing cage (light-dark cycle (light period by interior lighting: 7:00 a.m. to 7:00 p.m.), temperature: 23±3° C., humidity: 55+15%) under conditions where solid feed (CE-2, product of Oriental Yeast Co., Ltd.) and tap water were fed ad libitum.
Each of compound A, compound B, and fenofibrate was suspended in a 0.5 mass % aqueous solution of methylcellulose (Metolose (registered trademark), SM-400, product of Shin-Etsu Chemical Co., Ltd.) so that the dose of the aqueous solution was adjusted to 5 mL/kg. The resultant suspension was refrigerated in a light-shielding bottle at 4° C., and drug preparation was carried out every seven days.
(§5) Animals were divided into the following four groups (six animals per group): a first group (control), a second group (administration of compound A (1 mg/kg)), a third group (administration of compound B (3 mg/kg)), and a fourth group (administration of fenofibrate (300 mg/kg)).
(§6) Each drug was orally administered once a day (in the morning) for 35 days. A 0.5 mass % aqueous methylcellulose solution was orally administered (5 mL/kg) to the animals of the first group (control).
After completion of administration, epididymal fat and mesenteric fat were removed and weighed.
The results were represented as percent reduction (mean value) in fat weight in each compound administration group with respect to the control group.

KK-Ay mice [5] = details: mouse, in vivo, 1 mg/kg
Experimental: as §5, §6

rat model = details: cited from earlier work

## CC[C@@H](Oc1cccc(CN(CCCOc2ccc(OC)cc2)c2nc3ccccc3o2)c1)C(=O)O [Compound A, (R)-2-[3-[[N-(benzoxazol2-yl) -N-3-(4-methoxyphenoxy)propyl]aminomethyl]phenoxy]butyric acid]
Zucker fatty rats [1]
  plasma triglyceride level versus control group: significantly (p<0.05) lower than that in the control group
FGF21
  plasma FGF21 level versus control group: significantly (p<0.001) higher than that in the control group
Zucker fatty rats [2]
  epididymal fat weight versus control group: considerably and statistically significantly lower than that in the control group
Zucker fatty rats [3]; rat, in vivo, po
  adverse events during the period of administration: adverse events were not particularly observed
KK-Ay mice [4]; 1 mg/kg
  Epididymal fat weight, percent reduction (mean value) with respect to the control group: 27%
  Mesenteric fat weight, percent reduction (mean value) with respect to the control group: 20%
KK-Ay mice [5]
  adverse events during the period of administration: adverse events were not particularly observed

## CC[C@@H](Oc1cccc(CN(CCOc2ccccc2)c2nc3cc(F)ccc3o2)c1)C(=O)O [Compound B, (R)2-[3-[ [N-(5-fluorobenzoxazol2-yl)-N2-phenoxyethyl]aminomethyl]phenoxy]butyric acid]
KK-Ay mice [4]; 3 mg/kg
  Mesenteric fat weight, percent reduction (mean value) with respect to the control group: 17%

## CC(C)OC(=O)C(C)(C)Oc1ccc(C(=O)c2ccc(Cl)cc2)cc1 [Fenofibrate, fenofibrate]
Zucker fatty rats [3]; fenofibrate 300 mg/kg, Zucker fatty rats, for 10 days after administration
  feed intake compared with control group: maintained equal to that in the rats of the control group
Zucker fatty rats [3]; fenofibrate 300 mg/kg, Zucker fatty rats, from 11 days to 14 days after administration
  reduction of feed intake: 14%
KK-Ay mice [4]; 300 mg/kg
  Epididymal fat weight, percent reduction (mean value) with respect to the control group: 15%
  Mesenteric fat weight, percent reduction (mean value) with respect to the control group: 13%
Rat model; high dose of fenofibrate, rat model
  adverse events at high dose: adverse events (e.g., decrease in hemoglobin, or necrosis of liver cells) occur in the model
Rat model; rats, dose of 30 mg/kg or more
  adverse events: various adverse events occur in the rats
